Data from patent publication US20110281951A1, “Compositions and methods for treating amyloidosis” (priority 1999, published 2011).

Assays:
Type in all cases: biochemical
[1] = target: T1, IAPP (Homo sapiens, UniProt P10997); experiment: Thioflavine T spectroscopy, rate of amyloid fibril formation; details: ThT 62.5 μM; excitation 440 nm, emission 482 nm
T1 sequence (P10997 34-70 limits assumed): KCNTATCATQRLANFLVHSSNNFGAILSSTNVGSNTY
Method: Detection of ThT fluorescence can be used as a sensitive assay for amyloid fibril formation under different conditions. This assay has been used in experiments to determine the effects of compounds of the invention on amyloid fibril formation.
Human IAPP was dissolved in 40% trifluoroethanol and freeze-dried into conveniently-sized aliquots. IAPP was prepared immediately before the measurements by dissolving in 40% 1,1,1,3,3,3-hexafluoro-2-propanol (HFIP) in water to maintain the peptide in alpha helical conformation and soluble. A stock solution of ThT (2.5 mM) was prepared, 7.9 mg in 10 mL Tris-HCl pH 7.0 and filtered (0.22 μm). Solutions were kept in the dark until use. Fluorescence was examined at 440 nm excitation (slit 5 nm), and emission at 482 nm (slit 10 nm) with stirring. […] of ThT stock (final concentration 62.5 μM) was added to peptide sample and made up to 1 mL in the cuvette. The sample was stirred for 5 min. before taking a reading. Measurements were made at an initial time point (5 min. from sample preparation), at intervals over the next 4-6 h and after overnight incubation at room temperature.

[2] = target: T1, IAPP; experiment: Circular dichroism analysis of IAPP-associated fibril formation (Example 7); parameters: add 10 μL of 10 mg/mL IAPP stock solution (final 100 ng peptide); details: for Conformation at 24 h / CD at 24 h / Conformation at 48 h / CD at 48 h / Conformation at T0: molar ratio 1:5 peptide:compound; for CD at 24 h / CD at 48 h: more positive = less β-sheet
Method: Circular dichroism analysis was conducted to confirm the activity of certain therapeutic compounds in preventing or inhibiting IAPP-associated fibril formation in accordance with the present disclosure by determining the presence or absence of […] conformation.
Instrument: JASCO J-715 Spectropolarimeter
Cell cuvette: Hellma quartz (QS) with 1.0 mm pathlength
Wavelength interval: 250 nm-190 nm
Scanning speed: 20 nm/min
The assay, a co-incubation procedure, examines the ability of a compound or substance to inhibit the assembly of amyloid fibrils, e.g., to test for the presence of the amyloidotic β-sheet conformation in the presence of soluble IAPP. Samples are run in the presence and absence (i.e., water alone) of buffering agent, which is done to determine if competitive effects are seen with the ionic buffer (usually phosphate).
Add components used at a molar ratio of 1:10 [ peptide:compound]; add 10 μL of 10 mg/mL IAPP stock solution (final […] peptide) to the aqueous solution containing compound to a final volume of 400 μL. The pH of the final assay solution is measured to ensure there is no fluctuation and the spectrum is accumulated using the parameters as shown above.
Add desired amount of compound to achieve a 1:10 molar ratio in 10 mM phosphate buffer, pH 7. Add 10 μL of 10 mg/mL IAPP stock solution (final peptide 100 μg) to the phosphate buffered solution containing the compound and bring to a final volume of 400 μL. The pH of the final assay solution is measured to ensure there is no fluctuation and the spectrum is accumulated using the parameters as shown above.
In both assays, a control sample is run with each test group. This control contains peptide only in water or buffer at a similar final volume of 400 μl. Spectra for the control are collected initially (first run) and at the end of the test (final run) to ensure that the peptide has not undergone extensive aggregation during the course of the assay. Spectra for the controls are used to compare with the measurements obtained with the treated samples.
Make fresh 1 mg/mL stock solution of IAPP in 10 mM phosphate buffer, pH 7. Add desired amount of compound to achieve a 1:10 molar ratio in 10 mM phosphate buffer, pH 7. Incubate for 3 days at room temperature. Make up to final volume of 400 μL with 10 mM phosphate buffer, pH 7. The pH of the final assay solution is measured to ensure there is no fluctuation and the spectrum is accumulated using the parameters as shown above.
A similar control is run for comparative purposes.
Plots of the spectra (control and treated) are individually assembled and the changes in ellipticity at 218 nm are examined. This minimum is directly correlated with the amount of β-sheet present in the sample. Changes in either a positive or negative direction are noted and a relative value (“active” or “not active”) assigned to the compound as a measure of activity. In a subsequent experiment with the compounds at a molar ratio of 1:5 [ peptide:compound], the degree of randomness was noted, an indication of the ability of the compounds to prevent amyloid aggregation. A more positive number indicates less β-sheet formation. The ability of a compound to prevent β-sheet formation for at least 24 h is important, as the non-aggregated amyloid fibrils will be excreted in the soluble form. In the control noted below, the decrease in CD (mdegs) may indicate that some of the peptide is aggregating under these conditions.

[3] = target: T2, Aβ(1-40) (Homo sapiens, UniProt P05067); experiment: Circular dichroism analysis, pre-incubation assay, β-sheet at 218 nm; details: CD 218 nm, 0.02M Tris pH 7.4
T2 construct: Prepare a fresh 40 μm solution of Aβ(1-40) in 0.02M Tris, pH 7.4; made in house; host or cells: chemical synthesis (FMOC), HPLC purified
T2 sequence (P05067 672-711 limits assumed): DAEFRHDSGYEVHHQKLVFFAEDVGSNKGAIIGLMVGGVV
Method: The assay is conducted as follows:
Instrument: JASCO J-715 Spectropolarimeter.
Cell/cuvette: Hellma quartz (QS) with 1.0 mm pathlength Room temperature. Wavelength interval: 250 nm-190 nm.
Band width: 1.0 nm Response time: 1 sec Scanning speed: 20 nm/min Number of accumulations/spectrum: 5
1. Prepare a fresh 40 μm solution of Aβ(1-40) in 0.02M Tris, pH 7.4.
2. Prepare a 1 mM solution of test compounds in 0.02M Tris, pH 7.4.
3. Combine equal volumes of the Aβ(1-40) and test compound solutions.
4. Incubate the mixtures for 19 h.
5. Take the CD spectrum using the parameters above.
6. Return the mixtures to the incubator and incubate to 43 h.
7. Take the CD spectrum using the parameters above. • Inhibition of Aβ40 assembly/aggregation is determined by comparing the amount of b-sheet structure) appearing at lambda=218 nm) obtained in control and in treated sample at each timepoint.

[4] = target: T3, Aβ42 peptide (Homo sapiens, UniProt P05067); experiment: ELISA solubility assay (Aβ fibril formation); details: 1:10 peptide:compound, overnight at room temperature, 10 mM phosphate buffer
T3 construct: Stock solution of Aβ42 or Aβ40 peptide at 5 mg/ml in distilled water, pH 7; made in house; host or cells: chemical synthesis (FMOC), HPLC purified
T3 sequence (P05067 672-713 limits assumed): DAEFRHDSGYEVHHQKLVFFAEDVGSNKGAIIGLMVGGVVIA
Method: The assay was conducted as follows. Stock solution of Aβ42 peptide at 5 mg/ml in distilled water, pH 7, and stock solutions of each test compound at 1 mg/ml in distilled water, pH 7 were prepared. • 1. A 10 μg sample of peptide was mixed with compound at a molar ratio of 1:10 [ peptide:compound] in 500 μl of 10 mM phosphate buffer. Control samples contained peptide only. • 2. The mixture was incubated overnight at room temperature without agitation. • 3. The incubated mixture was centrifuged at 14,000 rpm (Eppendorf microfuge) for 5 minutes to separate the soluble peptide. • 4. 400 μl aliquots of supernatant were removed for ELISA assay.
ELISA • 1. 100 μl of prepared samples were coated in 96 wells NUNC microplates (each sample tested in triplicate) • 2. The plate was incubated at 37° C. for 3 hours, then at 4° C. overnight. • 3. The wells were washed twice with 0.05% Tween 20 in phosphate buffered saline. • 4. 250 μl of 3% skim milk powder in PBS was used to block non-specific binding to the wells (at 37° C. for 1.5 hours) • 5. The wells were washed with 0.05% Tween 20/PBS twice. • 6. A 100 μl aliquot of diluted (final dilution 1:100 in PBS) mouse monoclonal anti-Aβ antibody (purchased from DAKO recognizing the N-terminal residues 1-10) was added to each well. The antibody was then incubated at 37 C for 2 Hours. • 7. The wells were washed with 0.05% Tween 20/PBS six times (5 min/wash). • 8. Visualization was performed using 100 μl of diluted goat anti-mouse IgG (H^+ L) conjugated with alkaline phosphatase (purchased from BioRad) was added to each well. The plate was incubated at 37° C. for 1 hour. • 9. The wells were washed with 0.05% Tween 20/PBS six times (5 min/wash). • 10. The color reaction was developed using 100 μl of alkaline phosphatase substrate (purchased from BioRad) which was added to each well. • 11. The relative amounts of Aβ were obtained by measuring the OD of the sample at 405 nm using a standard ELISA plate reader.
Compounds were characterized as “active” if 40-50% of Aβ42 remained in the supernatant.

Compound | IAPP-associated fibril assembly (ThT fluorescence) [1] | Conformation at 24 h [2] | CD at 24 h [2] | Conformation at 48 h [2] | CD at 48 h [2] [mdegs] | Conformation at T0 [2] | Activity (change in ellipticity at 218 nm) ([2]; molar ratio 1:10 peptide:compound) | relative inhibition compared to Aβ alone, incubation time 0 h [3] | relative inhibition compared to Aβ alone, incubation time 19 h [3] | relative inhibition compared to Aβ alone, incubation time 43 h [3] | Aβ42 remaining in the supernatant (activity class) [4]
O=S(=O)(O)NC1CCCCC1 [LVXI, cyclohexylsulfamic acid] | inhibit or prevent IAPP-associated fibril assembly | β | (−1.1) mdegs | β | −0.8 | Random | Active | – | – | – | –
N[C@@H](COP(=O)(O)O)C(=O)O [LVXII, O-phospho-L-serine] | inhibit or prevent IAPP-associated fibril assembly | Random | – | β | −2.0 | Random | – | – | – | – | –
COc1ccc(S(=O)(=O)O)c2cccnc12 [LVXIV, 8-methoxyquinoline-5-sulfonic acid] | inhibit or prevent IAPP-associated fibril assembly | β | (−1.3) mdegs | β | −0.8 | Random | – | – | – | – | –
O=S(=O)(O)CCCN1CC=C(c2ccccc2)CC1 [LVXV, 4-Phenyl-1-(3′-sulfopropyl)-1,2,3,6-tetrahydropyridine] | inhibit or prevent IAPP-associated fibril assembly | Random | – | β | −1.8 | Random | – | + (+: 0-25%) | ++++ (++++: 75-100%) | ++ (++: 25-50%) | –
NCC(O)CS(=O)(=O)O (stereo not drawn) [LVXVI, 3-amino-2-hydroxy-1-propanesulfonic acid] | inhibit or prevent IAPP-associated fibril assembly | – | – | – | – | – | – | + (+: 0-25%) | +++ (+++: 50-75%) | ++ (++: 25-50%) | –
CN(C)CCCS(=O)(=O)O [LVXVII, 3-dimethylamino-1-propanesulfonic acid] | inhibit or prevent IAPP-associated fibril assembly | β | (−1.7) mdegs | β | −1.5 | Random | – | – | – | – | –
C=CC(=O)NC(C)(C)CS(=O)(=O)O [XXI, 2-acrylamido-2-methyl-1-propanesulfonic acid] | – | – | – | – | – | – | – | – | – | – | Active
CC12CC3CC(C)(C1)CC(NCCCS(=O)(=O)O)(C3)C2 [XXIV, 3-[(−3,5-dimethyl-1-adamantyl)-amino]-1-propanesulfonic acid] | – | – | – | – | – | – | – | – | – | – | Active
Cc1ccc2nc(-c3ccc(N=NNc4ccc(-c5nc6ccc(C)c(S(=O)(=O)[O-])c6s5)cc4)cc3)sc2c1S(=O)(=O)[O-].[Na+].[Na+] [XXVIII, Thiazol Yellow G] | – | – | – | – | – | – | – | – | – | – | Active
